Here are results for twelve compounds from US7432260B2, “Pyrimidine compounds” (Cyclacel Limted, priority 2002, dated 2008).

For one assay, the target named is CDK2/cyclin E (Homo sapiens, UniProt P24941). Description: Kinase assay CDK2/cyclin E. The conditions noted are these: Table 2; read-out: Kinase Inhibition IC50 CDK2 cyclin E. Format: biochemical. In outline:
(§1)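 Enzyme + substrate in β-glycerophosphate/MOPS/EGTA/DTT buffer, pH 7.4 → Mg/ATP (100 μM ATP, γ-32P) start → 30° C incubation → ice stop → P81 or GF/C filtration, H3PO4 wash → scintillation count.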

In another assay the target is CDK2/cyclin A (Homo sapiens, UniProt P24941). Description: Kinase assay CDK2/cyclin A. The conditions noted are these: Table 2; read-out: Kinase Inhibition IC50 CDK2 cyclin A. The format is biochemical. The gist of the method:
as §1

In the next assay the target is CDK1/cyclin B (Homo sapiens, UniProt P06493). Description: Kinase assay CDK1/cyclin B. The format is biochemical. The conditions noted are these: Table 2; read-out: Kinase Inhibition IC50 CDK1 cyclin B. The gist of the method:
as §1

The target of a further assay is GSK-3β (Homo sapiens, UniProt P49841). Description: Kinase assay GSK-3β. Format: biochemical. The conditions noted are these: Table 2; read-out: Kinase Inhibition IC50 GSK-3β. How it is done:
(§2) Kinase assays. […] This was achieved by measurement of incorporation of radioactive phosphate from ATP into appropriate polypeptide substrates. Recombinant protein kinases and kinase complexes were produced or obtained commercially. Assays were performed using 96-well plates and appropriate assay buffers (typically 25 mM β-glycerophosphate, 20 mM MOPS, 5 mM EGTA, 1 mM DTT, 1 mM […], pH 7.4), into which were added 2-4 μg of active enzyme with appropriate substrates. The reactions were initiated by addition of Mg/ATP mix (15 mM MgCl2+100 μM ATP with 30-50 kBq per well of [γ-^32P]-ATP) and mixtures incubated as required at 30° C. Reactions were stopped on ice, followed by filtration through p81 filterplates or GF/C filterplates (Whatman Polyfiltronics, Kent, UK). After washing 3 times with 75 mM aq orthophosphoric acid, plates were dried, scintillant added and incorporated radioactivity measured in a scintillation counter (TopCount, Packard Instruments, Pangbourne, Berks, UK). Compounds for kinase assay were made-up as 10 mM stocks in DMSO and diluted into 10% DMSO inrassay buffer.

The next assay deals with A549. Put plainly: 72-h MTT cytotoxicity assay A549. Format: cell-based. The conditions noted are these: Homo sapiens, A549, 72 h, Table 4. In outline: (§3)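 Cells were seeded according to doubling time, then exposed to 1/3 serial dilutions of compound in triplicate for 72 h at 37 °C. MTT was added for 4 h at 37 °C in the dark, and the formazan was dissolved in DMSO.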
For the next assay, the system named is Saos-2. Description: 72-h MTT cytotoxicity assay Saos-2. The format is cell-based. The conditions noted are these: Homo sapiens, SAOS-2, 72 h, Table 4. In outline:
as §3
Background: Formazan colour is commonly taken as a measure of viable cells.

Another assay addresses CDK7/cyclin H (Homo sapiens, UniProt P50613). Put plainly: CDK7 assay. The format is biochemical. The conditions noted are these: Table 2; read-out: Kinase Inhibition IC50 CDK7 cyclin H. How it is done: as §2
(§4) CDK 7 and 9 assays. CTD peptide substrate (biotinyl-Ahx-(Tyr-Ser-Pro-Thr-Ser-Pro-Ser)4-NH2; 1-2 mg/mL) and recombinant human CDK7/cyclin H, CDK9/cyclin T1, or CDK9/cyclin K (0.5-2 μg) were incubated for 45 min at 30° C. in the presence of varying amounts of test compound in 20 mM MOPS pH 7.2, 25 mM β-glycerophosphate, 5 mM EGTA, 1 mM DTT, 1 mM sodium vanadate, 15 mM MgCl2, and 100 μM ATP (containing a trace amount of ^32PγATP) in a total volume of 25 μL in a 96-well microtiter plate. The reaction was stopped by placing the plate on ice for 2 min. Avidin (50 μg) was added to each well, and the plate was incubated at room temp for 30 min. The samples were transferred to a 96-well P81 filter plate, and washed (4×200 μL per well) with 75 mM phosphoric acid. Microscint 40 scintillation liquid (50 μL) was added to each well, and the amount of ^32P incorporation for each sample was measured using a Packard Topcount microplate scintillation counter.

A further assay relates to HT29. Put plainly: 72-h MTT cytotoxicity assay HT29. The conditions noted are these: Homo sapiens, HT-29, 72 h, Table 4. The format is cell-based. In outline: as §3
A further assay concerns the target CDK9/cyclin T1 (Homo sapiens, UniProt P50750). Description: CDK9 assay. The conditions noted are these: Table 2; read-out: Kinase Inhibition IC50 CDK9 cyclin T1. The format is biochemical. As to the method:
as §2, §4

Another assay addresses CDK4/cyclin D1 (Homo sapiens, UniProt P11802). Put plainly: Kinase assay CDK4/cyclin D1. Format: biochemical. The conditions noted are these: Table 2; read-out: Kinase Inhibition IC50 CDK4 cyclin D1. The gist of the method:
as §1

A further assay concerns the target PLK-1 (Homo sapiens, UniProt P53350). Description: Kinase assay PLK-1. Format: biochemical. The conditions noted are these: Table 2; read-out: Kinase Inhibition IC50 PLK-1. As to the method: as §2

Chain of CDK4/cyclin D1 (P11802 whole entry): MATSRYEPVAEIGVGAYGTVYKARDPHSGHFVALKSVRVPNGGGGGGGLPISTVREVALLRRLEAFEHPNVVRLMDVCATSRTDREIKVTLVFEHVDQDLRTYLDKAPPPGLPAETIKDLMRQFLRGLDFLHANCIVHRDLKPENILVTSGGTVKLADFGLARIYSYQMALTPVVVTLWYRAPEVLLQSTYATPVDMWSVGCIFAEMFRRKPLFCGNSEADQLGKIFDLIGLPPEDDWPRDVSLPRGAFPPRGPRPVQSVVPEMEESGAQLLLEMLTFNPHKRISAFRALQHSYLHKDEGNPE
Chain of CDK4/cyclin D1 (P24385 whole entry partner): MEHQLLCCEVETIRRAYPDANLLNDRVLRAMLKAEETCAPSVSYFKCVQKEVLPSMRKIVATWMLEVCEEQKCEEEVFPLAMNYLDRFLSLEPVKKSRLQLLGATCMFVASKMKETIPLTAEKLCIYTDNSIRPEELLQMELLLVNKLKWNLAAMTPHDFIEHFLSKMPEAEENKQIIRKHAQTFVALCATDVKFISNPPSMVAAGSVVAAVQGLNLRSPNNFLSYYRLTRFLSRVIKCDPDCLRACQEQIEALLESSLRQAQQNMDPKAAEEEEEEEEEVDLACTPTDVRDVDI
Chain of GSK-3β (P49841 whole entry): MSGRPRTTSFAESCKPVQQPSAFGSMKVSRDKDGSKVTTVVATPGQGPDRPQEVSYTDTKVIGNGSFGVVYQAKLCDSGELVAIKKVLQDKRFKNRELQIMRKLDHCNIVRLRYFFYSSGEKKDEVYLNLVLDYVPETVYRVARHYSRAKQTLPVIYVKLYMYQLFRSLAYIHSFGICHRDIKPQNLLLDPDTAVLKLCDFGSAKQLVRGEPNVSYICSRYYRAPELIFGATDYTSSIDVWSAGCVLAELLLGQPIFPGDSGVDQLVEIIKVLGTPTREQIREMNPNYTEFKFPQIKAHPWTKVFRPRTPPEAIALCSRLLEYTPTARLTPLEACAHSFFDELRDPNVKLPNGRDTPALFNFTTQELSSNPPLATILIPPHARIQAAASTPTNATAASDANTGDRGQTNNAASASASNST
Chain of CDK1/cyclin B (P06493 whole entry): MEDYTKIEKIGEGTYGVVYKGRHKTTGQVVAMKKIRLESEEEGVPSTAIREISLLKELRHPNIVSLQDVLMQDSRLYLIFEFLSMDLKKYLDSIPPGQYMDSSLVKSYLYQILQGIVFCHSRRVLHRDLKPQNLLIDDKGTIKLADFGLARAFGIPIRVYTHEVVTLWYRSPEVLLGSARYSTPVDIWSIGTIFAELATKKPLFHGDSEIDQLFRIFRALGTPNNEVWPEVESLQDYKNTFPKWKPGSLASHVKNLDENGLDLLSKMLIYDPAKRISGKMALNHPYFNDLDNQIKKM
Chain of CDK1/cyclin B (P14635 whole entry partner): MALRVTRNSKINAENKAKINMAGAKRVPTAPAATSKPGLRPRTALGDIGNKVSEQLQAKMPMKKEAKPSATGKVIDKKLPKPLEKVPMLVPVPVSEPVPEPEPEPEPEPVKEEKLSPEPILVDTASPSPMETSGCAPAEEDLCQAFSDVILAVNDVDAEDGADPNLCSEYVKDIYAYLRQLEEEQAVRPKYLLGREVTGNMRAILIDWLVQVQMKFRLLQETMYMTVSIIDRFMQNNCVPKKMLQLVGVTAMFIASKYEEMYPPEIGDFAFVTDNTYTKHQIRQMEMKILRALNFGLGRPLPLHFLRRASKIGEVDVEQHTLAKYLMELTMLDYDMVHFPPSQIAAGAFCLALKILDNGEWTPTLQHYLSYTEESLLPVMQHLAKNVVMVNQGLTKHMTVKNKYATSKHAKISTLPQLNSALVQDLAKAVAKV
Chain of CDK9/cyclin T1 (P50750 whole entry): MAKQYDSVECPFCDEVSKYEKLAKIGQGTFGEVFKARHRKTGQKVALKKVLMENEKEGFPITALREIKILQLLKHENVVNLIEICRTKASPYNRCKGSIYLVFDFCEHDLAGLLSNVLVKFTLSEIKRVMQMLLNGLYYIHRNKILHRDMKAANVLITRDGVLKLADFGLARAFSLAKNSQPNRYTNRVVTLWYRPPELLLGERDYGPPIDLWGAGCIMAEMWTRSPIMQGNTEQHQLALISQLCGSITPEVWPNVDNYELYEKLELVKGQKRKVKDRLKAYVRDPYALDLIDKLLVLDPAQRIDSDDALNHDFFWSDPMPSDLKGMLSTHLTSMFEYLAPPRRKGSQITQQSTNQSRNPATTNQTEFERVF
Chain of CDK9/cyclin T1 (O60563 whole entry partner): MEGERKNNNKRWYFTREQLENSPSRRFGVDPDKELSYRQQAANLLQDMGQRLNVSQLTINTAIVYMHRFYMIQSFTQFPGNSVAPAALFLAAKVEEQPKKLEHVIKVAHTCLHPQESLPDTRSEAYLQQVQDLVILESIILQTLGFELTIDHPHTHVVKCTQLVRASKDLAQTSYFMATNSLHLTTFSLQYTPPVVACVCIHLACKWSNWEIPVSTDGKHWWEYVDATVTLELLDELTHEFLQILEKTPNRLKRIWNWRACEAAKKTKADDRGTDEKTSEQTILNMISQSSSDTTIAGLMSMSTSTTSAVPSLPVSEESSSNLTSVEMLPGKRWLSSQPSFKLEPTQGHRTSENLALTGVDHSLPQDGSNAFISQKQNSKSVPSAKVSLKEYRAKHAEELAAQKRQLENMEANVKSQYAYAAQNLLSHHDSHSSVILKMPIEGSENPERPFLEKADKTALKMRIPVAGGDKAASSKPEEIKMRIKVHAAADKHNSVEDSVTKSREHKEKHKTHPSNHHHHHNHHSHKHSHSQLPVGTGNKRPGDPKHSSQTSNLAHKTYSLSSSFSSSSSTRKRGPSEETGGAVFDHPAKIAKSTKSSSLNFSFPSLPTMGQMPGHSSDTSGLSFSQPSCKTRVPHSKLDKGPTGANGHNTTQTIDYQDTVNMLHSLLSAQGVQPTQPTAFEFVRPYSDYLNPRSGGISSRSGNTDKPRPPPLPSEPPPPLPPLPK
Chain of CDK7/cyclin H (P50613 whole entry): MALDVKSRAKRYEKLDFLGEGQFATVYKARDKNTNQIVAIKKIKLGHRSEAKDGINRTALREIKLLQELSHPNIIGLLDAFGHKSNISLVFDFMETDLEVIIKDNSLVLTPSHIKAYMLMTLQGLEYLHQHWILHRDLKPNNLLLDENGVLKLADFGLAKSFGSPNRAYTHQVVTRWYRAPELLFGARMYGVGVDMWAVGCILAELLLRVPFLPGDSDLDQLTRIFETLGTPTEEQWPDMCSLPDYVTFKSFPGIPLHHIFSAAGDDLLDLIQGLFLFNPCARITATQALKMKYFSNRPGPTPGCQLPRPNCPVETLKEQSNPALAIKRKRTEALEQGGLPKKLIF
Chain of PLK-1 (P53350 whole entry): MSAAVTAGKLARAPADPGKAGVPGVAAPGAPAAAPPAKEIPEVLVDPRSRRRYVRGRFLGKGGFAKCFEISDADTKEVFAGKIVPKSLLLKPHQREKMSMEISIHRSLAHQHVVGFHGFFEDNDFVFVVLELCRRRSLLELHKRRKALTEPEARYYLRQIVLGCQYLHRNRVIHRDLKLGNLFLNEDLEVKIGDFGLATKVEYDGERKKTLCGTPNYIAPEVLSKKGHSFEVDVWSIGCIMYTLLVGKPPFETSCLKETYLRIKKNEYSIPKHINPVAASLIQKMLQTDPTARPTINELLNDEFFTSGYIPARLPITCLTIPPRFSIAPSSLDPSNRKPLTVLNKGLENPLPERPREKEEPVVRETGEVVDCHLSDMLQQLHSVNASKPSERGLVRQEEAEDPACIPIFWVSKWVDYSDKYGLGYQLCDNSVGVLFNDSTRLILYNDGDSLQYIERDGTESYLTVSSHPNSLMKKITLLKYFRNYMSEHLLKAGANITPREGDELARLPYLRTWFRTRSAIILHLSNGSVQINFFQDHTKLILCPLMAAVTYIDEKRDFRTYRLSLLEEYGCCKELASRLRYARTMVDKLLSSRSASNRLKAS

As to `Cc1nc(N2CCOCC2)sc1-c1ccnc(Nc2ccc(N(C)C)cc2)n1` [Compound 57, N,N-Dimethyl-N′-[4-(4-methyl-2-morpholin-4-yl-thiazol-5-yl)-pyrimidin-2-yl]-benzene-1,4-diamine], the IC50 on CDK2/cyclin E is 350 nM; on CDK2/cyclin A it was 73000 nM; on CDK1/cyclin B it was 7700 nM; at GSK-3β, 74000 nM; in the assay on A549, 2700 nM; in the assay on Saos-2 it was 3800 nM. Moreover, the IC50 on CDK7/cyclin H amounted to 190 nM; with HT29, 240 nM; on CDK9/cyclin T1, 12000 nM; on CDK4/cyclin D1 it was 71 nM.

`CNc1nc(C)c(-c2ccnc(Nc3ccc(OCCOC)c([N+](=O)[O-])c3)n2)s1` [Compound 77, [4-(2-Methoxy-ethoxy)-3-nitro-phenyl]-[4-(4-methyl-2-methylamino-thiazol-5-yl)-pyrimidin-2-yl]-amine]: the 50% inhibitory concentration (IC50) at CDK2/cyclin E was found to be 150 nM; on CDK2/cyclin A it was 1000 nM; on CDK1/cyclin B it was 72000 nM; at GSK-3β it was 6100 nM; in the assay on A549, 310 nM; in the assay on Saos-2 it was 350 nM. In addition, the IC50 at CDK7/cyclin H is 1000 nM; in the assay with HT29 it was 210 nM; on CDK9/cyclin T1, 260 nM; on CDK4/cyclin D1 it was 3400 nM.

For `Cc1nc(NC(=O)CCl)sc1-c1ccnc(Nc2cccc(Cl)c2)n1` [Compound 25, 2-Chloro-N-{5-[2-(3-chloro-phenylamino)-pyrimidin-4-yl]-4-methyl-thiazol-2-yl}-acetamide], the IC50 was determined as 220 nM at CDK2/cyclin E; 3000 nM at CDK2/cyclin A; 9400 nM at CDK1/cyclin B; 83 nM at GSK-3β; 970 nM in the assay with A549; 1600 nM in the assay with Saos-2. The IC50 is 3200 nM at CDK7/cyclin H, 1300 nM with HT29, 680 nM at CDK9/cyclin T1 and 970 nM at CDK4/cyclin D1.

Take `CNc1nc(C)c(-c2ccnc(Nc3ccc(N4CCN(C(C)=O)CC4)cc3)n2)s1` [Compound 61, 1-(4-{4-[4-(4-Methyl-2-methylamino-thiazol-5-yl)-pyrimidin-2-ylamino]-phenyl}-piperazin-1-yl)-ethanone]: the IC50 on CDK1/cyclin B is 2500 nM; on GSK-3β, 6800 nM; with A549, 720 nM; in the assay with Saos-2, 1000 nM; on CDK7/cyclin H, 2300 nM; with HT29, 530 nM. Further, the IC50 at CDK9/cyclin T1 amounted to 1500 nM; on CDK4/cyclin D1 it was 42 nM.

Take `Cc1nc(N2CCOCC2)sc1-c1ccnc(Nc2cccc(O)c2)n1` [Compound 55, 3-[4-(4-Methyl-2-morpholin-4-yl-thiazol-5-yl)-pyrimidin-2-ylamino]-phenol]: the IC50 on CDK2/cyclin E was found to be 79 nM; on CDK2/cyclin A it was 61000 nM; on CDK1/cyclin B, 2400 nM; at GSK-3β, 67000 nM; with A549 it was 2300 nM; in the assay on Saos-2, 1400 nM. For the same compound, the IC50 on CDK7/cyclin H was found to be 2200 nM; with HT29 it was 5100 nM; on CDK9/cyclin T1 it was 2100 nM; at CDK4/cyclin D1, 1000 nM.

On to `Cc1nc(C)c(-c2ccnc(Nc3ccc(NC(=O)Cn4ccnc4)cc3)n2)s1` [Compound 54, N-{4-[4-(2,4-Dimethyl-thiazol-5-yl)-pyrimidin-2-ylamino]-phenyl}-2-imidazol-1-yl-acetamide], for which the IC50 at CDK2/cyclin E came out at 98 nM; on CDK2/cyclin A, 57000 nM; on CDK1/cyclin B it was 1300 nM; at GSK-3β it was 19000 nM; in the assay on A549 it was 2900 nM; with Saos-2, 1900 nM. In addition, the IC50 on CDK7/cyclin H amounted to 2100 nM; in the assay on HT29, 2700 nM; on CDK9/cyclin T1, 110 nM; on CDK4/cyclin D1, 32 nM.

`Cc1nc(NS(C)(=O)=O)sc1-c1ccnc(Nc2cccc([N+](=O)[O-])c2)n1` [Compound 32, N-{4-Methyl-5-[2-(3-nitro-phenylamino)-pyrimidin-4-yl]-thiazol-2-yl}-methanesulfonamide]: the IC50 at CDK2/cyclin E is 5 nM; at GSK-3β, 210 nM; with A549, 100 nM; in the assay on Saos-2, 160 nM; in the assay on HT29, 170 nM; on CDK9/cyclin T1 it was 1.4 nM. Besides, the half-maximal inhibitory concentration (IC50) at CDK4/cyclin D1 is 1100 nM.

Consider `Cc1c(-c2ccnc(Nc3ccc(N4CCN(C)CC4)cc3)n2)sc(=O)n1C` [Compound 93, 3,4-Dimethyl-5-{2-[4-(4-methyl-piperazin-1-yl)-phenylamino]-pyrimidin-4-yl}-3H-thiazol-2-one], for which the IC50 at CDK2/cyclin E was 840 nM; at CDK2/cyclin A it was 1100 nM; on CDK1/cyclin B it was 4400 nM; on GSK-3β it was 430 nM; at CDK7/cyclin H it was 360 nM; at CDK9/cyclin T1, 300 nM. Moreover, the IC50 on CDK4/cyclin D1 came to 510 nM.

On to `CNc1nc(C)c(-c2ccnc(Nc3ccc(Cl)c(CO)c3)n2)s1` [Compound 73, {2-Chloro-5-[4-(4-methyl-2-methylamino-thiazo1-5-yl)-pyrimidin-2-ylamino]-phenyl}-methanol], for which the half-maximal inhibitory concentration (IC50) on CDK2/cyclin E was 1000 nM; at CDK2/cyclin A it was 1300 nM; on CDK1/cyclin B it was 1700 nM; at GSK-3β it was 5200 nM; in the assay with A549, 1500 nM; in the assay on Saos-2 it was 2900 nM. Moreover, the IC50 at CDK7/cyclin H was determined as 2000 nM; in the assay with HT29 it was 5500 nM; at CDK9/cyclin T1 it was 550 nM; on CDK4/cyclin D1, 230 nM.

With `CC(=O)N1CCN(c2ccc(Nc3nccc(-c4sc(C)nc4C)n3)cc2)CC1` [Compound 5, 1-(4-{4-[4-(2,4-Dimethyl-thiazol-5-yl)-pyrimidin-2-ylamino]-phenyl}-piperazin-1-yl)-ethanone], the IC50 on CDK1/cyclin B amounted to 5600 nM; at GSK-3β it was 21000 nM; in the assay on A549 it was 3800 nM; on PLK-1, 35000 nM; with Saos-2, 3900 nM; at CDK7/cyclin H, 5600 nM. For the same compound, the IC50 in the assay on HT29 turned out to be 2200 nM; at CDK9/cyclin T1, 6100 nM; at CDK4/cyclin D1, 1700 nM.

Consider `Cc1nc(C)c(-c2ccnc(Nc3ccc(Cl)c(CO)c3)n2)s1` [Compound 72, {2-Chloro-5-[4-(2,4-dimethyl-thiazol-5-yl)-pyrimidin-2-ylamino]-phenyl}-methanol], for which the IC50 was 730 nM at CDK2/cyclin E; 12000 nM at CDK2/cyclin A; 62000 nM on CDK1/cyclin B; 48000 nM on GSK-3β; 32000 nM in the assay on A549; 18000 nM with Saos-2. Further, the IC50 on CDK7/cyclin H worked out at 9600 nM; in the assay with HT29, 20000 nM; at CDK9/cyclin T1 it was 4100 nM; on CDK4/cyclin D1, 25000 nM.

`Cc1nc(N2CCOCC2)sc1-c1ccnc(Nc2cccc([N+](=O)[O-])c2)n1` [Compound 71, [4-(4-Methyl-2-morpholin-4-yl-thiazol-5-yl)-pyrimidin-2-yl]-(3-nitro-phenyl)-amine]: the IC50 at CDK2/cyclin E amounted to 220 nM; at CDK2/cyclin A, 6 nM; on CDK1/cyclin B, 330 nM; on GSK-3β, 2400 nM; in the assay on A549 it was 80000 nM; in the assay on Saos-2, 10000 nM. Also, the results for the 50% inhibitory concentration (IC50) at CDK7/cyclin H, in the assay on HT29 and at CDK9/cyclin T1 were 2400 nM, 71000 nM and 4200 nM, respectively.

For orientation: IC50 means the concentration that inhibits the measured activity by half.
